The target in one assay is T1, human GPR52 (Homo sapiens, UniProt Q9Y2T5).
T1 construct: expressed in transfected cells; host or cells: CHO(dhfr-) cells
T1 sequence (Q9Y2T5 whole entry): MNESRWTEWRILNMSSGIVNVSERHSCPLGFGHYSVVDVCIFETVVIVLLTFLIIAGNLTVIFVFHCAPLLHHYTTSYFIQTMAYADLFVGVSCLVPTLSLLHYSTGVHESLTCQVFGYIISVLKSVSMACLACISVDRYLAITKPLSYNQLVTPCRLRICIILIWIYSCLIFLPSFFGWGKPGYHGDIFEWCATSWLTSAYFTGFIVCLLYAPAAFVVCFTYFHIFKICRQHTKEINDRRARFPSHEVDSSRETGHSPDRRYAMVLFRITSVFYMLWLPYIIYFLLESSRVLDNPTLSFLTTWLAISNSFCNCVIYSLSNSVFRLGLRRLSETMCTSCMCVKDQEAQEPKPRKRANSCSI
The assay can be described thus: Increase of intracellular cAMP concentration in human GPR52-expressing CHO cell (AlphaScreen cAMP assay). It counts as cell-based. Particulars: 0.5 h; test compound 10 µm, 37°C, 30 min, human GPR52-expressing CHO(dhfr-) cells; 100% = cAMP with 1 µM N-(2-hydroxyethyl)-3-[2-[3-(trifluoromethyl)benzyl]-1-benzofuran-4-yl]benzamide, 0% = DMSO; read-out: GPR52 agonist activity (%). The protocol:
Increase of intracellular cAMP concentration in human GPR52-expressing CHO cell
Using OptiPlate-384 (PerkinElmer Inc.), 1×10^4 human GPR52-expressing CHO(dhfr-) cells were incubated together with a test compound ([…]) in an assay buffer (30 µL, HBSS (containing Ca^2+ and Mg^2+), 0.5% BSA, 100 µM IBMX, 100 µM Ro20-1724, 5 mM HEPES (pH 7.55)) at 37°C for 30 min. Thereafter, according to the protocol of AlphaScreen cAMP Assay Kit (PerkinElmer Inc.), the intracellular cAMP concentration was measured by EnVision (PerkinElmer Inc.). The GPR52 agonist activity was calculated, assuming the intracellular cAMP concentration in the presence of 1 µM N-(2-hydroxyethyl)-3-[2-[3-(trifluoromethyl)benzyl]-1-benzofuran-4-yl]benzamide to be 100% and assuming the intracellular cAMP concentration when DMSO was added instead of the test compound to be 0%.
On to `Cc1nc(Cc2cc(F)cc(Cl)c2)sc1NC(=O)C1(S(C)(=O)=O)CC1` [Example 172, N-[2-(3-chloro-5-fluorobenzyl)-4-methyl-1,3-thiazol-5-yl]-1-(methylsulfonyl)cyclopropanecarboxamide], for which the activation at 10 µM worked out at 89%. As to `COc1cc(C(=O)Nc2sc(Cc3cc(F)cc(Cl)c3)nc2C)n(C)n1` [Example 235, N-[2-(3-chloro-5-fluorobenzyl)-4-methyl-1,3-thiazol-5-yl]-3-methoxy-1-methyl-1H-pyrazole-5-carboxamide], the activation at 10 µM amounted to 79%. For `Cc1nc(Cc2cc(F)cc(Cl)c2)sc1NC(=O)c1c(C)noc1C` [Example 186, N-[2-(3-chloro-5-fluorobenzyl)-4-methyl-1,3-thiazol-5-yl]-3,5-dimethylisoxazole-4-carboxamide], the activation at 10 µM worked out at 94%. As to `CCN1CC(C(=O)Nc2sc(Cc3cccc(C(F)(F)F)c3)nc2C)CC1=O` (stereo not drawn) [Example 4, 1-ethyl-N-(4-methyl-2-[3-(trifluoromethyl)benzyl]-1,3-thiazol-5-yl}-5-oxopyrrolidine-3-carboxamide], the activation at 10 µM came to 72%. Consider `Cc1nc(Cc2cccc(Cl)c2)sc1NC(=O)c1ccnn1C` [Example 157, N-[2-(3-chlorobenzyl)-4-methyl-1,3-thiazol-5-yl]-1-methyl-1H-pyrazole-5-carboxamide], for which the activation at 10 µM is 77%. In the case of `Cc1nc(Cc2cccc(Br)c2)sc1NC(=O)c1ccnn1C` [Example 224, N-[2-(3-bromobenzyl)-4-methyl-1,3-thiazol-5-yl]-1-methyl-1H-pyrazole-5-carboxamide], the activation at 10 µM worked out at 80%. The same measure, in the same setting: for `Cc1nc(Cc2cccc(C(F)(F)F)c2)sc1NC(=O)c1nccn1C` [Example 41, 1-methyl-N-{4-methyl-2-[3-(trifluoromethyl)-benzyl]-1,3-thiazol-5-yl}-1H-imidazole-2-carboxamide] the value was 72%; for `Cc1nc(Cc2cc(F)cc(C(F)(F)F)c2)sc1NC(=O)c1ccnn1C` [Example 181, N-{2-[3-fluoro-5-(trifluoromethyl)benzyl]-4-methyl-1,3-thiazol-5-yl}-1-methyl-1H-pyrazole-5-carboxamide], 91%. Take `Cc1nc(Cc2cc(F)cc(Cl)c2)sc1NC(=O)c1ccnn1CC(F)(F)F` [Example 163, N-[2-(3-chloro-5-fluorobenzyl)-4-methyl-1,3-thiazol-5-yl]-1-(2,2,2-trifluoroethyl)-1H-pyrazole-5-carboxamide]: the activation at 10 µM stood at 78%. Turning to `Cc1nc(Cc2cc(F)cc(Cl)c2)sc1NC(=O)c1ncn(C)c1C` [Example 180, N-[2-(3-chloro-5-fluorobenzyl)-4-methyl-1,3-thiazol-5-yl]-1,5-dimethyl-1H-imidazole-4-carboxamide], the activation at 10 µM was determined as 75%.

`COCCNC(=O)C1(C(=O)Nc2sc(Cc3cc(F)cc(Cl)c3)nc2C)CC1` [Example 175, N-[2-(3-chloro-5-fluorobenzyl)-4-methyl-1,3-thiazol-5-yl]-N'-(2-methoxyethyl)cyclopropane-1,1-dicarboxamide]: the activation at 10 µM turned out to be 71%.

On to `Cc1nc(Cc2cccc(S(C)(=O)=O)c2)sc1NC(=O)c1ccnn1C` [Example 233, 1-methyl-N-{4-methyl-2-[3-(methylsulfonyl)benzyl]-1,3-thiazol-5-yl}-1H-pyrazole-5-carboxamide], for which the activation at 10 µM was 81%. On to `Cc1nc(Cc2cccc(C(F)(F)F)c2)sc1NC(=O)c1c(C)nn(C)c1C` [Example 47, 1,3,5-trimethyl-N-{4-methyl-2-[3-(trifluoromethyl)-benzyl]-1,3-thiazol-5-yl}-1H-pyrazole-4-carboxamide], for which the activation at 10 µM was determined as 82%.

Still in this assay, the particulars now being: test compound 10 µm, 37°C, 30 min, human GPR52-expressing CHO(dhfr-) cells; 100% = cAMP with 1 µM N-(2-hydroxyethyl)-3-[2-[3-(trifluoromethyl)benzyl]-1-benzofuran-4-yl]benzamide, 0% = DMSO.
On to `Cc1nocc1C(=O)Nc1sc(Cc2cccc(C(F)(F)F)c2)nc1C` [Example 24, 3-methyl-N-{4-methyl-2-[3-(trifluoromethyl)benzyl]-1,3-thiazol-5-yl}isoxazole-4-carboxamide], for which the “GPR52 agonist activity (%)” value came to 93%.

For the compound “N^4-[2-(3-chloro-5-fluorobenzyl)-4-methyl-1,3-thiazol-5-yl]piperidine-1,4-dicarboxamide [Example 254]”, the “GPR52 agonist activity (%)” value is 77%.

The values above are taken from patent EP2530078A1, “THIAZOLE DERIVATIVE” (Takeda Pharmaceutical Company Limited, priority 2010, dated 2011).
